# In patent US6407316B1, “Method of increasing foreign protein expression” (priority 1997, dated 2002):
# Tests used:
# Roundup Ready® Cotton [1] = assay: Fruiting of Roundup Ready Cotton, insecticide at planting, Roundup at six-leaf stage; format: in vivo; conditions: for % change from UTC (Squares per Plant) / Squares per Plant: 40 days after Roundup treatment; for % change from UTC (Square & Bolls) / Square & Bolls: after 57 days
# Experimental: (§1) A plot of Roundup Ready® Cotton (RRC was grown up. One part of the plot was treated with Temik® at a rate of 5.6 kg/ha of commercial product at the time of planting of the seed. Another part was treated with Disyston® (disulfoton) at 22.24 kg of commercial product/ha the time of planting of the seed. Another part of the plot was grown from seed treated with Gauch® (imidactoprid) at a rate of 0.357 kg of commercial product per 100 kg of seed. One part of the plot was left untreated by an insecticide which is called hereafter the untreated check (UTC).
# Roundup Ready® Cotton was grown up as in Example 5 and treated with Roundup at the six-leaf stage.
# The following results were observed 40 days after the Roundup® treatment:
# After 57 days, many of the square had matured to bolls.
# Roundup Ready® Cotton [2] = assay: Fruiting of Roundup Ready Cotton, insecticide at planting, Roundup at four-leaf stage; format: in vivo; conditions: for % change from UTC (Squares per Plant) / Squares per Plant / % change from UTC (Squares + Bolls) / Squares + Bolls: Roundup at four-leaf stage; for % change from UTC (Squares per Plant) / Squares per Plant: 45 days after Roundup treatment; for % change from UTC (Squares + Bolls) / Squares + Bolls: after 62 days
# Experimental: as §1
# The isopropylamine salt of glyphosate was applied to all the cotton plants at the four-leaf stage in the form of the commercial product Roundup® at a rate of 32 oz of commercial product per acre (=[…] of active ingredient). The following results were observed 45 days after the Roundup® treatment:
# After 62 days, many squares had matured to bolls and the following observations were made: […]
# Heliothis virescens = assay: Bt cotton tissue incorporated into Heliothis diet, pupation bioassay (EC50P); format: in vivo; conditions: aldicarb at plant, tissue collected after 90 days
# Experimental: Cotton leaves and squares were collected from treatments of Bt Cotton wherein the cotton was treated with Temik® 15G under the following conditions;
# A) 0.45 lbs active ingredient per acre at plant (0.5 kg/ha)
# B) […] active ingredient per acre at plant; […] and
# C) 0.75 lbs active ingredient per acre (0.84 kg/ha) at plant and followed 3 weeks later by a side-dress treatment of 1.0 lbs per acre (1.12 kg/ha) of active ingredient.
# One planting was not treated with aldicarb.
# After 90 days leaves and squares were collected, washed with soap and water, allowed to dry, washed with acetone, allowed to dry and finally washed with chloroform. The tissues were then freeze dried, ground in a mortar and pestle and stored at room temperature.
# The cotton tissues were incorporated into a Heliothis diet and fed to Heliothis virescens. The larvae in the cups were weighed at seven days after infestation and the number of pupae were counted 14 and 21 days after infestation. The percent pupation was calculated at the different concentrations and the EC50P (the amount of tissue per liter of diet that reduced pupation by 50%) was calculated for each insecticide treatment to express the amount of toxin activity in the treatment.
# delta-endotoxin = assay: Delta-endotoxin level in tissues of field-grown NuCotn 32B after in-furrow aldicarb; format: in vivo, cotton (NuCotn® 32B); conditions: Temik 15G in furrow, about 0.5 kg/ha active ingredient; various points in the growing season
# Experimental: Seeds of NuCotn® 32B are planted in a field. Aldicarb, in the form of the commercial product Temik® 15G (a 15% weight/weight granular formulation) is applied in the furrow that comprises the seed at a rate of about 0.5 kg/ha of active ingredient or 3.3 kg/ha of commercial product. At various points in the growing season, the plant tissues are tested for the levels of the delta-endotoxin.
# NuCotn® 32B = assay: Number of bolls on field-grown NuCotn 32B after side-dress aldicarb; format: in vivo, cotton; conditions: Temik 15G side-dress 7.8 kg/ha commercial product; after a full growing season
# Excerpt: (§2) Seeds of NuCotn® 32B are planted in a field. Aldicarb, in the form of the commercial product Temik® 15G (a 15% weight/weight granular formulation) is applied as a side-dress at 7.8 kg/ha of commercial product. […] The amount of damage due to bollworm attack on the cotton is less in those treated with aldicarb in comparison to those not treated with aldicarb.
# bollworm = assay: Bollworm damage on field-grown NuCotn 32B after side-dress aldicarb; format: in vivo; conditions: Temik 15G side-dress 7.8 kg/ha commercial product; after a full growing season
# Excerpt: as §2
SMILES,% change from UTC (Squares per Plant) (Roundup Ready® Cotton [1]),Squares per Plant (Roundup Ready® Cotton [1]),% change from UTC (Square & Bolls) (Roundup Ready® Cotton [1]),Square & Bolls (Roundup Ready® Cotton [1]),% change from UTC (Squares per Plant) (Roundup Ready® Cotton [2]),Squares per Plant (Roundup Ready® Cotton [2]),% change from UTC (Squares + Bolls) (Roundup Ready® Cotton [2]),Squares + Bolls (Roundup Ready® Cotton [2]),"amount of tissue to reduce pupation by 50% (EC50P) vs untreated check (Heliothis virescens; leaf tissue, reading three weeks after infestation)","amount of tissue to reduce pupation by 50% (EC50P) vs untreated check (Heliothis virescens; leaf tissue, reading two weeks after infestation)","amount of tissue to reduce pupation by 50% (EC50P) vs untreated check (Heliothis virescens; square tissue, reading three weeks after infestation)","amount of tissue to reduce pupation by 50% (EC50P) vs untreated check (Heliothis virescens; square tissue, reading two weeks after infestation)",level of the delta-endotoxin in plant tissues vs plants not treated (delta-endotoxin),"yield of cotton compared with UTC or cotton treated with other pesticides (Roundup Ready® Cotton [2]; herbicide at the four-leaf stage, summary of Example 5)",number of bolls on the plants vs not treated (NuCotn® 32B),amount of damage due to bollworm attack vs not treated (bollworm)
"O=[N+]([O-])N=C1NCCN1Cc1ccc(Cl)nc1 [imidacloprid, 1-(6-chloro-3-pyridylmethyl)-N-nitroimidazolidin-2-ylideneamine]",−14%,7.60,+14%,16.5,+18%,8.70,−0.2%,14.8,–,–,–,–,–,–,–,–
"CNC(=O)ON=CC(C)(C)SC [aldicarb, 2-methyl-2-(methylthio)propionaldehyde O-(methylcarbamoyl)oxime]",+23%,10.95,+11%,16.0,+21%,9.05,+18.7%,18.7,higher amounts of tissue,higher amounts of tissue,lesser amounts of tissue,lesser amounts of tissue,higher level of the endotoxin,increases the yield of cotton,larger number of bolls,less
CCOP(=S)(OCC)SCCSCC [disulfoton],−36%,5.65,+14%,16.5,+2%,7.65,−15.0%,12.8,–,–,–,–,–,–,–,–
